Experimental data as given in patent publication US8772268B2, “Bisphosphonamidate prodrugs and uses thereof” (The Johns Hopkins University, priority 2010, dated 2014).
Where “and” joins values, the source holds several entries; their conditions need not be identical. Equal values may be shown once.

Experiments:
[1] = tested on: P. falciparum (NF54); assay: Antimalarial [3H]-hypoxanthine incorporation assay; format: cell-based, Plasmodium falciparum; details: P. falciparum (NF54); read-out: IC50
Protocol: Plasmodium falciparum culture. NF54 P. falciparum parasites were maintained in O+ positive erythrocytes (obtained weekly from a rotating pool of screened healthy donors) in complete medium containing RPMI (Sigma), 25 mM N-2-hydroxyethylpiperazine-N′-2-ethanesulfonic acid (HEPES; Sigma), 27 mM sodium bicarbonate (Sigma) and 10% heat-inactivated male O+ serum in non-vented flasks. Hematocrit was maintained at 2.4%. Flasks were gassed with a mixture of 3% oxygen, 4% carbon dioxide, 93% nitrogen. Parasitemia was maintained at 0.1-5% by changing medium and erythrocytes two to three times a week.
Antimalarial activity was measured using a [^3H]-hypoxanthine incorporation assay as described previously (Desjardins et al., Antimicrob. Agents Chemother., vol. 16, p. 710, 1979; Milhous et al., Antimicrob. Agents Chemother., vol. 27, np. 525, 1985). […] For surveys, each concentration was assayed in triplicate while in expansions, each concentration was assayed in quadruplicate. To each well, 0.64 μCi of [^3H]-hypoxanthine (10-30 Ci/mmol; Perkin Elmer) was added and the plate was incubated for an additional 20 to 24 h. Samples from each well were harvested on filter paper and tritium counts were measured on the Beckmann Coulter LS6500 scintillation counter. […] Values considered as outliers according to Chauvenet's criterion were discarded and dropped from analysis. One survey and at least one expansion was performed for each compound.

[2] = In vivo tolerance study, intraperitoneal dosing; set-up: species or system Balb/C mice; details: listed as clodronate prodrug
Protocol: Thirteen Balb/C mice were split into four groups; untreated, vehicle, dose 1 and dose 2. Untreated mice received no treatment or injection. The vehicle was 100 μL of corn oil. Mice receiving dose 1 received 100 μL of 30 mM clodronate prodrug dissolved in corn oil (2.17 mg/dose), which is about 110 mg/kg dose. Mice receiving dose 2 received 100 μL of 50 mM clodronate prodrug dissolved in corn oil (3.61 mg/dose), which is about a 200 mg/kg dose. Mice were dosed on Monday of each week for two weeks. The weights were measured for 4 consecutive days following dosing.

[3] = tested on: A549 NSCLC cells; assay: Effect of drug treatment time (MTS, drug removed); format: cell-based; details: A549, 24 or 2 h exposure, viability measured after 48 h
Protocol: Cell proliferation was determined using the CellTiter 96 Aqueous One Solution Cell Proliferation Assay MTS assay. A549 NSCLC cells were plated at 1.5×10^3 cells per well in flat bottom 96 well plates in 99 μL of media and allowed to adhere overnight. The drugs were serially diluted in 100% DMSO. For each drug treatment group, 1 μL of a 100× stock solution was added to each well for a final DMSO concentration of 1%. Cells were treated for 2, 24, or 48 under normoxic or hypoxic (1-3% oxygen) conditions. Following 2 or 24 h, media containing drug was removed, the cells were washed 1× with fresh media, and 100 μL fresh media was added to each well. Cells were then allowed to grow for an additional 46 or 24 h in drug free media. After 48 h, cells were incubated with MTS dye (20 μL well^−1) for 40 min to 2 h. Absorbance at 490 nm was determined using a SpectraMax M2 (Molecular Devices) plate reader. The percent cell proliferation was calculated by converting the experimental absorbance to percentage of control, which was then plotted vs. drug concentration. The IC50 values were determined using a non-linear dose-response analysis in GraphPad Prism version 4.0.
A549 cells were treated with prodrug 14 for 24 or 2 h. Prodrug was removed and cell viability measured after 48 h using a standard MTS assay. Longer exposure to […] results in lower […].

[4] = tested on: HL-60(TB); assay: NCI-60 DTP Human Tumor Cell Line Screen; format: cell-based; details: Leukemia, 48 h
[5] = tested on: K-562; assay: NCI-60 DTP Human Tumor Cell Line Screen; format: cell-based; details: K-562, Leukemia, 48 h
[6] = tested on: MALME-3M; assay: NCI-60 DTP Human Tumor Cell Line Screen; format: cell-based; details: Melanoma, 48 h
[7] = tested on: IGROV1; assay: NCI-60 DTP Human Tumor Cell Line Screen; format: cell-based; details: IGROV1, Ovarian Cancer, 48 h
[8] = tested on: NCI/ADR-RES; assay: NCI-60 DTP Human Tumor Cell Line Screen; format: cell-based; details: Ovarian Cancer, 48 h
[9] = tested on: SK-OV-3; assay: NCI-60 DTP Human Tumor Cell Line Screen; format: cell-based; details: SK-OV-3, Ovarian Cancer, 48 h
[10] = tested on: ACHN; assay: NCI-60 DTP Human Tumor Cell Line Screen; format: cell-based; details: Renal Cancer, 48 h
[11] = tested on: TK-10; assay: NCI-60 DTP Human Tumor Cell Line Screen; format: cell-based; details: TK-10, Renal Cancer, 48 h
[12] = tested on: BT-549; assay: NCI-60 DTP Human Tumor Cell Line Screen; format: cell-based; details: BT-549, Breast Cancer, 48 h
[13] = tested on: T-47D; assay: NCI-60 DTP Human Tumor Cell Line Screen; format: cell-based; details: Breast Cancer, 48 h
[14] = tested on: MDA-MB-468; assay: NCI-60 DTP Human Tumor Cell Line Screen; format: cell-based; details: MDA-MB-468, Breast Cancer, 48 h

SMILES: CN(CCCCCl)P(=O)(OCc1ccc([N+](=O)[O-])cc1)C(Cl)(Cl)P(=O)(OCc1ccc([N+](=O)[O-])cc1)N(C)CCCCCl (stereo not shown) [compound 14]
- IC50 [1]: 980 ± 210 nM
- Wt ([2]; Dose 1 (about 110 mg/kg i.p.), week 1, Apr. 11, 2011, individual mice): 19.2 g and 18.3 g and 19.4 g
- Wt ([2]; Dose 1, 2nd week of treatment, Apr. 18, 2011): 19.3 g and 18.8 g and 18.4 g
- Wt ([2]; Dose 1, 2nd week, Apr. 19, 2011): 19.3 g and 18.9 g and 18.3 g
- Wt ([2]; Dose 1, 2nd week, Apr. 20, 2011): 19.4 g and 18.9 g and 18.4 g
- Wt ([2]; Dose 1, 2nd week, Apr. 21, 2011): 19.1 g and 18.9 g and 18.6 g
- Wt ([2]; Dose 1, 2nd week, Apr. 22, 2011): 19.3 g and 19.2 g and 18.3 g
- Wt ([2]; Dose 1, week 1, Apr. 12, 2011): 19.3 g and 18.1 g and 18.4 g
- Wt ([2]; Dose 1, week 1, Apr. 13, 2011): 19.8 g and 18.8 g and 18.7 g
- Wt ([2]; Dose 1, week 1, Apr. 14, 2011): 19.8 g and 18.7 g and 19.1 g
- Wt ([2]; Dose 1, week 1, Apr. 15, 2011): 19.5 g and 19.01 g and 18.8 g
- Wt ([2]; Dose 2 (about 200 mg/kg i.p.), week 1, Apr. 11, 2011, individual mice): 18.7 g and 18.2 g and 19.1 g
- Wt ([2]; Dose 2, 2nd week of treatment, Apr. 18, 2011): 19.3 g and 19.1 g and 19.5 g
- Wt ([2]; Dose 2, 2nd week, Apr. 19, 2011): 19.1 g and 19.3 g and 19.5 g
- Wt ([2]; Dose 2, 2nd week, Apr. 20, 2011): 18.8 g and 19 g
- Wt ([2]; Dose 2, 2nd week, Apr. 21, 2011): 19 g and 19.4 g
- Wt ([2]; Dose 2, 2nd week, Apr. 22, 2011): 18.9 g and 19.5 g and 20 g
- Wt ([2]; Dose 2, week 1, Apr. 12, 2011): 17.8 g and 17.7 g and 18.2 g
- Wt ([2]; Dose 2, week 1, Apr. 13, 2011): 19.07 g and 18.8 g
- Wt ([2]; Dose 2, week 1, Apr. 14, 2011): 19.03 g and 18.8 g and 19.1 g
- Wt ([2]; Dose 2, week 1, Apr. 15, 2011): 18.7 g and 18.2 g and 19.6 g
- growth inhibition over shorter drug treatment times [3]: more potent growth inhibition than zoledronate
- Log10GI50 [4]: −5.39
- Log10LC50 [4]: >−4.00
- Log10TGI [4]: >−4.00
- Log10GI50 [5]: −5.45
- Log10LC50 [5]: >−4.00
- Log10TGI [5]: >−4.00
- Log10GI50 [6]: −5.39
- Log10LC50 [6]: >−4.00
- Log10TGI [6]: >−4.00
- Log10GI50 [7]: −5.39
- Log10LC50 [7]: >−4.00
- Log10TGI [7]: >−4.00
- Log10GI50 [8]: −5.58
- Log10LC50 [8]: >−4.00
- Log10TGI [8]: >−4.00
- Log10GI50 [9]: −5.19
- Log10LC50 [9]: >−4.00
- Log10TGI [9]: >−4.00
- Log10GI50 [10]: −5.49
- Log10LC50 [10]: >−4.00
- Log10TGI [10]: >−4.00
- Log10GI50 [11]: −5.35
- Log10LC50 [11]: >−4.00
- Log10TGI [11]: >−4.00
- Log10GI50 [12]: −5.50
- Log10LC50 [12]: >−4.00
- Log10TGI [12]: −5.03
- Log10GI50 [13]: −5.27
- Log10LC50 [13]: >−4.00
- Log10TGI [13]: >−4.00
- Log10GI50 [14]: −5.58
- Log10LC50 [14]: >−4.00
- Log10TGI [14]: −5.07
